Experimental findings from patent US11730719B2, “Pharmaceutical composition” (KOWA COMPANY, LTD., priority 2017, dated 2023) are described below.

A short description of data set [1]: Examination of stability of pemafibrate (open dish storage, related substances by HPLC). Type of data set: physicochemical. How it is done: 250 mg of pemafibrate was placed in a dish, and stored in an uncapped state (open state) in a dark place at 40° C. and 75% relative humidity (RH) for 3 months.
The sum of related substance-derived peak areas was evaluated in terms of a ratio (%) to the pemafibrate-derived peak area using an HPLC apparatus, and the ratio was defined as the “Total amount (%) of related substances”.

Data set [2] is described as follows: Hygroscopic property evaluation of pemafibrate crystal (Karl Fischer moisture content). Type of data set: physicochemical. As to the method: A pemafibrate crystal was produced by recrystallizing pemafibrate from an ethyl acetate/heptane mixture in accordance with the method for producing a pemafibrate crystal as described in Non-Patent Document 1.
250 mg of the pemafibrate crystal was placed in a dish, and stored in an uncapped state (open state) in a dark place at 25° C. and 83% relative humidity (RH) for 3 months. The hygroscopic property was evaluated by measuring the moisture contents before and after the storage. The measurement of the moisture content was performed by a coulometric titration method in accordance with The Japanese Pharmacopoeia, 17th Edition, Moisture Content Measurement Method (Karl Fischer Method).

Consider `CC[C@@H](Oc1cccc(CN(CCCOc2ccc(OC)cc2)c2nc3ccccc3o2)c1)C(=O)O` [Pemafibrate, (2R)-2-[3-([1,3-Benzoxazol-2-yl[3-(4-methoxyphenoxy)propyl]amino]methyl)phenoxy]butanoic acid], for which the “Total amount (%) of related substances” value in data set [1] (After storage at 40° C. and 75% RH for 3 months, open state in dish, dark place) is reported as under 0.05%; in data set [1] (Before storage, 250 mg in dish), under 0.05%. Also, the “Stability against moisture content” value in data set [1] (storage at 75% RH for 3 months) is listed as “stable”.
Consider `CC[C@@H](Oc1cccc(CN(CCCOc2ccc(OC)cc2)c2nc3ccccc3o2)c1)C(=O)O` [Pemafibrate crystal, (2R)-2-[3-([1,3-Benzoxazol-2-yl[3-(4-methoxyphenoxy)propyl]amino]methyl)phenoxy]butanoic acid], for which the “Moisture content (%)” value in data set [2] (After storage at 25° C. and 83% RH for 3 months, open state in dish, dark place) was under 0.1%; in data set [2] (Before storage, 250 mg in dish), under 0.1%. The Hygroscopic property result in data set [2] (storage at 83% RH for 3 months) is “not hygroscopic”.
